# Experimental data from paper PMC8903076 (Journal of medicinal chemistry, 2021).
# Biological target: human GCGR (Homo sapiens, UniProt P47871)
# Experiment: CRE-luciferase reporter assay
# Assay type: cell-based
# Settings: HEK293 cells stably expressing human GCGR
# human GCGR, sequence (P47871 26-477): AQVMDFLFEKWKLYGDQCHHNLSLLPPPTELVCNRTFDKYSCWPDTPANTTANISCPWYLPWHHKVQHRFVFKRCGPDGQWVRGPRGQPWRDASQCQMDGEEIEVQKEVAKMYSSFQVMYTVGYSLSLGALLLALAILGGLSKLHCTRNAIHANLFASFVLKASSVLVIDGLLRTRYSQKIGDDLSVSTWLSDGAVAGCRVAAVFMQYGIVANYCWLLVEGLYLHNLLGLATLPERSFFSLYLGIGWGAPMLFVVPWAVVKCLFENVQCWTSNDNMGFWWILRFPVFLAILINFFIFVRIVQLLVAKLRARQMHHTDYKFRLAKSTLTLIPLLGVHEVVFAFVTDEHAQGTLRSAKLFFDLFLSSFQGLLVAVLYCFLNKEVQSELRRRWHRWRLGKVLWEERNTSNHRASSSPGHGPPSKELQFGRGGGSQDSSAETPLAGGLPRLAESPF
substance,measurement,value
H-HAibQGTFTSDYSKYLDSRRAQDFVK^TailWLX^1T-NH2 [compound 18],activity in activating GCGR (in words),completely lost the activity
